*1 amine or outer side, *2 acyl side, *3 side chain or, on linkers, in order; H or OH if unused. [ ]: non-standard residue; d: D form. Cys(Acm) = CC(=O)NCSC[C@H](N[*:1])C(=O)[*:2]; Phe(4-F) = N[C@@H](Cc1ccc(F)cc1)C(=O)O; NMeA = CN[C@@H](C)C(=O)O; Nle = CCCC[C@H](N)C(=O)O
Experiments:
guinea pigs = assay: In vivo bronchodilator activity by tracheal instillation against histamine-induced bronchoconstriction; design: species or system guinea pig; conditions: 100 μl, anesthetized male Hartley guinea pigs, histamine challenge 50 μg/kg i.v., inhibition of tracheal pressure increase
Method: The in vivo bronchodilator activity of VIP analogs in guinea pigs was assessed by the tracheal instillation route of administration. This technique utilized male guinea pigs (Hartley strain, Charles River) weighing 400-600 g. Animals were anesthetized with urethane (2 g/kg) intraperitoneally and a polyethylene cannula was inserted into the jugular vein for intravenous drug administration.
The animals were tracheotomized and dosing solutions of distilled water or test compound dissolved in distilled water were administered into the trachea, approximately three-quarter the distance to the carina with a pipette. The concentration of the dosing solution was adjusted to deliver a constant volume of 100 μl. The animals were placed supine for one minute to aid drug delivery to the lung. One minute later, spontaneous breathing was arrested with succinylcholine chloride (1.2 mg/kg) administered intravenously, and the animals were ventilized with a Harvard Model 680 small animal respirator set at 40 breaths/min and 4.0 cm^3 stoke volume. The animals were challenged with a maximal constrictory dose of histamine (50 μg/kg, i.v.) and tracheal pressure (cm of water) was recorded from a Statham pressure transducer (P 32 AA).
The change in tracheal pressure was averaged for at least 3 control and 3 drug-treated animals and percent inhibition was calculated. The relative potency of compounds administered by the instillation route was determined by administering various doses of test compound and calculating the median inhibitory dose (ID50 value). The ID50 was determined from log dose-reasons curves generated by at least 3 doses that caused inhibitory effects between 10% and 90%. The correlation coefficient for the regression line of each antagonist was always greater than 0.95.
For determination of the time course of inhibition for various compounds, the time between administration of compound and challenge with histamine was varied. The time course of activity was calculated as the time when inhibition decreased to 40%.

[1] = tested on: guinea pig tracheal smooth muscle; assay: Tracheal relaxant activity of VIP analogs on isolated guinea pig tracheal rings; format: cell-based; conditions: cumulative concentration response; responses as % of maximum response to VIP (10^-6 M=100%); at least three tissues pooled; linear regression
Method: The relaxant activity of the VIP analogs was studied in a model utilizing guinea pig trachea. [Wasserman, M. A. et al., in Vasoactive Intestinal Peptide, S. I. Said, ed., Raven Press, N.Y. 1982, pp 177-184]; All tissues were taken from male albino guinea pig weighing 400-600 g, anesthesized with urethane (2 g/kg, i.p.). After exanguination, the trachea were removed and divided into four ring segments (3 mm length). Each ring was suspended by 30 gauge stainless steel wires in a 10 mL jacketed tissue bath and attached via 4-0 silk thread to a Grass force displacement transducer (model FT03C, Grass Instruments Co., Quincy, Ma), for isometric recording of tension. The smooth muscle was bathed in modified Krebs solution of the following composition: NaCl, 120 mM; KCl, 4.7 mM; CaCl2, 2.5 mM; MgSO.4 7H2 O, 1.2 mM; NaHCO3, 25 mM; K2 HPO4 monobasic, 1.2 mM; and dextrose, 10 mM. Tissue baths were maintained at 37° C. and constantly bubbled with 95% O2 and 5% CO2. Responses were recorded on an 8 channel and a 4 channel Hewlett-Packard (model 7702B and 7754A, respectively) recorder (Hewlett-Packard, Paramus, N.J.). […] Frequent readjustments of tension were required during the 60 minute stabilization period which followed. Tissues were rinsed at 15 minute intervals.
Cumulative concentration response curves were obtained for each tissue by successive […] increases in the bath concentration of VIP or VIP analogs according to the method of VanRossum [Arch. Int. Pharmacodyn., 143, 299-330 (1963)]. Only one cumulative dose response curve was obtained on a single tissue. To minimize variability between tissues, relaxant responses were expressed as a percentage of the maximum response obtained to VIP (10^-6 M=100%) added at the end of each concentration response experiment. Responses obtained from at least three tissues were pooled and EC50 values were determined by linear regression.

| Substance | Bronchodilator activity in guinea pigs, ED50 (guinea pigs) | EC50 [1] |
| --- | --- | --- |
| Ac--[Lys^12, Nle^17, Ala^19, Ala^25, Leu^26, Lys^27,28, Ala^29-31 ]--VIP (Ac-HSDAVFTDNYTKLRKQ[Nle]AAKKYLNALKKAAA-NH2; SMILES CCCC[C@H](NC(=O)[C@H](CCC(N)=O)NC(=O)[C@H](CCCCN)NC(=O)[C@H](CCCNC(=N)N)NC(=O)[C@H](CC(C)C)NC(=O)[C@H](CCCCN)NC(=O)[C@@H](NC(=O)[C@H](Cc1ccc(O)cc1)NC(=O)[C@H](CC(N)=O)NC(=O)[C@H](CC(=O)O)NC(=O)[C@@H](NC(=O)[C@H](Cc1ccccc1)NC(=O)[C@@H](NC(=O)[C@H](C)NC(=O)[C@H](CC(=O)O)NC(=O)[C@H](CO)NC(=O)[C@H](Cc1c[nH]cn1)NC(C)=O)C(C)C)[C@@H](C)O)[C@@H](C)O)C(=O)N[C@@H](C)C(=O)N[C@@H](C)C(=O)N[C@@H](CCCCN)C(=O)N[C@@H](CCCCN)C(=O)N[C@@H](Cc1ccc(O)cc1)C(=O)N[C@@H](CC(C)C)C(=O)N[C@@H](CC(N)=O)C(=O)N[C@@H](C)C(=O)N[C@@H](CC(C)C)C(=O)N[C@@H](CCCCN)C(=O)N[C@@H](CCCCN)C(=O)N[C@@H](C)C(=O)N[C@@H](C)C(=O)N[C@@H](C)C(N)=O) [Ac--(SEQ ID NO: 22)--NH2] | 0.046 µg | 0.24 nM |
| Ac--[Lys^12, Nle^17, Ala^19, Val^26, Thr^28, Ala^29-31 ]--VIP (Ac-HSDAVFTDNYTKLRKQ[Nle]AAKKYLNSVLTAAA-NH2; SMILES CCCC[C@H](NC(=O)[C@H](CCC(N)=O)NC(=O)[C@H](CCCCN)NC(=O)[C@H](CCCNC(=N)N)NC(=O)[C@H](CC(C)C)NC(=O)[C@H](CCCCN)NC(=O)[C@@H](NC(=O)[C@H](Cc1ccc(O)cc1)NC(=O)[C@H](CC(N)=O)NC(=O)[C@H](CC(=O)O)NC(=O)[C@@H](NC(=O)[C@H](Cc1ccccc1)NC(=O)[C@@H](NC(=O)[C@H](C)NC(=O)[C@H](CC(=O)O)NC(=O)[C@H](CO)NC(=O)[C@H](Cc1c[nH]cn1)NC(C)=O)C(C)C)[C@@H](C)O)[C@@H](C)O)C(=O)N[C@@H](C)C(=O)N[C@@H](C)C(=O)N[C@@H](CCCCN)C(=O)N[C@@H](CCCCN)C(=O)N[C@@H](Cc1ccc(O)cc1)C(=O)N[C@@H](CC(C)C)C(=O)N[C@@H](CC(N)=O)C(=O)N[C@@H](CO)C(=O)N[C@H](C(=O)N[C@@H](CC(C)C)C(=O)N[C@H](C(=O)N[C@@H](C)C(=O)N[C@@H](C)C(=O)N[C@@H](C)C(N)=O)[C@@H](C)O)C(C)C) [Ac--(SEQ ID NO: 10)--NH2] | 0.82 µg | 0.3 nM |
| Ac--[Lys^12, Nle^17, Ala^19, Val^26, Thr^28, Gly^29, Lys^30 ]--VIP (Ac-HSDAVFTDNYTKLRKQ[Nle]AAKKYLNSVLTGK-NH2; SMILES CCCC[C@H](NC(=O)[C@H](CCC(N)=O)NC(=O)[C@H](CCCCN)NC(=O)[C@H](CCCNC(=N)N)NC(=O)[C@H](CC(C)C)NC(=O)[C@H](CCCCN)NC(=O)[C@@H](NC(=O)[C@H](Cc1ccc(O)cc1)NC(=O)[C@H](CC(N)=O)NC(=O)[C@H](CC(=O)O)NC(=O)[C@@H](NC(=O)[C@H](Cc1ccccc1)NC(=O)[C@@H](NC(=O)[C@H](C)NC(=O)[C@H](CC(=O)O)NC(=O)[C@H](CO)NC(=O)[C@H](Cc1c[nH]cn1)NC(C)=O)C(C)C)[C@@H](C)O)[C@@H](C)O)C(=O)N[C@@H](C)C(=O)N[C@@H](C)C(=O)N[C@@H](CCCCN)C(=O)N[C@@H](CCCCN)C(=O)N[C@@H](Cc1ccc(O)cc1)C(=O)N[C@@H](CC(C)C)C(=O)N[C@@H](CC(N)=O)C(=O)N[C@@H](CO)C(=O)N[C@H](C(=O)N[C@@H](CC(C)C)C(=O)N[C@H](C(=O)NCC(=O)N[C@@H](CCCCN)C(N)=O)[C@@H](C)O)C(C)C) [Ac--(SEQ ID NO: 11)--NH2] | 0.58 µg | 0.58 nM |
| Ac--[N--Me--Ala^1, Lys^12, Nle^17, Ala^19, ^26, Thr^28 ]--VIP (Ac-[NMeA]SDAVFTDNYTKLRKQ[Nle]AAKKYLNSVLT-NH2; SMILES CCCC[C@H](NC(=O)[C@H](CCC(N)=O)NC(=O)[C@H](CCCCN)NC(=O)[C@H](CCCNC(=N)N)NC(=O)[C@H](CC(C)C)NC(=O)[C@H](CCCCN)NC(=O)[C@@H](NC(=O)[C@H](Cc1ccc(O)cc1)NC(=O)[C@H](CC(N)=O)NC(=O)[C@H](CC(=O)O)NC(=O)[C@@H](NC(=O)[C@H](Cc1ccccc1)NC(=O)[C@@H](NC(=O)[C@H](C)NC(=O)[C@H](CC(=O)O)NC(=O)[C@H](CO)NC(=O)[C@H](C)N(C)C(C)=O)C(C)C)[C@@H](C)O)[C@@H](C)O)C(=O)N[C@@H](C)C(=O)N[C@@H](C)C(=O)N[C@@H](CCCCN)C(=O)N[C@@H](CCCCN)C(=O)N[C@@H](Cc1ccc(O)cc1)C(=O)N[C@@H](CC(C)C)C(=O)N[C@@H](CC(N)=O)C(=O)N[C@@H](CO)C(=O)N[C@H](C(=O)N[C@@H](CC(C)C)C(=O)N[C@H](C(N)=O)[C@@H](C)O)C(C)C) [Ac--(SEQ ID NO: 91)--NH2, residue before ^26 lost in print, probably Val^26] | 1.5 µg | 2.8 nM |
| Ac--[N--Me--Ala^1, Lys^12, Nle^17, Val^26, Thr^28 ]--VIP (Ac-[NMeA]SDAVFTDNYTKLRKQ[Nle]AVKKYLNSVLT-NH2; SMILES CCCC[C@H](NC(=O)[C@H](CCC(N)=O)NC(=O)[C@H](CCCCN)NC(=O)[C@H](CCCNC(=N)N)NC(=O)[C@H](CC(C)C)NC(=O)[C@H](CCCCN)NC(=O)[C@@H](NC(=O)[C@H](Cc1ccc(O)cc1)NC(=O)[C@H](CC(N)=O)NC(=O)[C@H](CC(=O)O)NC(=O)[C@@H](NC(=O)[C@H](Cc1ccccc1)NC(=O)[C@@H](NC(=O)[C@H](C)NC(=O)[C@H](CC(=O)O)NC(=O)[C@H](CO)NC(=O)[C@H](C)N(C)C(C)=O)C(C)C)[C@@H](C)O)[C@@H](C)O)C(=O)N[C@@H](C)C(=O)N[C@H](C(=O)N[C@@H](CCCCN)C(=O)N[C@@H](CCCCN)C(=O)N[C@@H](Cc1ccc(O)cc1)C(=O)N[C@@H](CC(C)C)C(=O)N[C@@H](CC(N)=O)C(=O)N[C@@H](CO)C(=O)N[C@H](C(=O)N[C@@H](CC(C)C)C(=O)N[C@H](C(N)=O)[C@@H](C)O)C(C)C)C(C)C) [Ac--(SEQ ID NO: 88)--NH2] | 8.5 µg | 7.2 nM |
| Ac--[p-F--Phe^6, Glu^8, Lys^12, Nle^17, Ala^19, Val^26, Thr^28, Gly^29,30, Cys(Acm)^31 ]--VIP (Ac-HSDAV[Phe(4-F)]TENYTKLRKQ[Nle]AAKKYLNSVLTGG[Cys(Acm)]-NH2; SMILES CCCC[C@H](NC(=O)[C@H](CCC(N)=O)NC(=O)[C@H](CCCCN)NC(=O)[C@H](CCCNC(=N)N)NC(=O)[C@H](CC(C)C)NC(=O)[C@H](CCCCN)NC(=O)[C@@H](NC(=O)[C@H](Cc1ccc(O)cc1)NC(=O)[C@H](CC(N)=O)NC(=O)[C@H](CCC(=O)O)NC(=O)[C@@H](NC(=O)[C@H](Cc1ccc(F)cc1)NC(=O)[C@@H](NC(=O)[C@H](C)NC(=O)[C@H](CC(=O)O)NC(=O)[C@H](CO)NC(=O)[C@H](Cc1c[nH]cn1)NC(C)=O)C(C)C)[C@@H](C)O)[C@@H](C)O)C(=O)N[C@@H](C)C(=O)N[C@@H](C)C(=O)N[C@@H](CCCCN)C(=O)N[C@@H](CCCCN)C(=O)N[C@@H](Cc1ccc(O)cc1)C(=O)N[C@@H](CC(C)C)C(=O)N[C@@H](CC(N)=O)C(=O)N[C@@H](CO)C(=O)N[C@H](C(=O)N[C@@H](CC(C)C)C(=O)N[C@H](C(=O)NCC(=O)NCC(=O)N[C@@H](CSCNC(C)=O)C(N)=O)[C@@H](C)O)C(C)C) [Ac--(SEQ ID NO: 67)--NH2] | 0.30 µg | 1.9 nM |

Source: patent US5234907A, “Synthetic vasoactive intestinal peptide analogs” (Hoffmann-La Roche Inc., priority 1991, dated 1993)
